Entries after “also recorded” stand apart in the source; their conditions may differ. Read-outs that look alike come from different tables or passages of the source.
How the values were obtained:
[1] = cited from earlier work; for Plasma protein binding (%): published data
[2] = target: T1, OCT2 (Homo sapiens, UniProt O15244); experiment: Cmax,u/IC50 or Cmax/IC50,app ratio for clinically relevant inhibition of OCT2-mediated oxaliplatin uptake; design: expressed in transfected cells; host or cells: MDCK-II (Madin-Darby canine kidney type II)
T1 sequence (O15244 1-555): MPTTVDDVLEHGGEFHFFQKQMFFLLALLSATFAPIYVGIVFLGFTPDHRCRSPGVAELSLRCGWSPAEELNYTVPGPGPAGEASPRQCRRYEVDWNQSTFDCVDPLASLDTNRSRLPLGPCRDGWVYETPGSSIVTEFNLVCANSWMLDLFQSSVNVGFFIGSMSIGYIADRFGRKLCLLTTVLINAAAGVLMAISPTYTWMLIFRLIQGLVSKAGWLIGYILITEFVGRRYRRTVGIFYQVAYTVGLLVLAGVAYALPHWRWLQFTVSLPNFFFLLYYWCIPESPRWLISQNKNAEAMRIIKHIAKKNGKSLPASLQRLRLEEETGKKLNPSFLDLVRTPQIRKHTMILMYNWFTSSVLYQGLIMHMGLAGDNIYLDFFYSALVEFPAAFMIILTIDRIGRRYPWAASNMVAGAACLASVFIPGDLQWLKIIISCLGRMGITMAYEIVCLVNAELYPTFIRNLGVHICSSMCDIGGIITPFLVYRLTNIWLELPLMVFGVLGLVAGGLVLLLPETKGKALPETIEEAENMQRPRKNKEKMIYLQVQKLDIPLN
Description: The FDA has published guidance in predicting if a drug is likely to be a transporter inhibitor in clinics by using data attained in in vitro models. Cmax,u denotes the maximum free, unbound plasma concentration of a drug. […] Thus, characteristics of the in vitro model may be used to predict in vivo effectiveness.

[3] = target: MATE2K (Homo sapiens, UniProt Q86VL8); experiment: Inhibition of MATE2K-mediated oxaliplatin transport in human serum or 4% BSA HBSS
[4] = target: T2, OCT3 (Homo sapiens, UniProt O75751); experiment: Inhibition of OCT3-mediated oxaliplatin transport in human serum or 4% BSA HBSS
T2 sequence (O75751 1-556): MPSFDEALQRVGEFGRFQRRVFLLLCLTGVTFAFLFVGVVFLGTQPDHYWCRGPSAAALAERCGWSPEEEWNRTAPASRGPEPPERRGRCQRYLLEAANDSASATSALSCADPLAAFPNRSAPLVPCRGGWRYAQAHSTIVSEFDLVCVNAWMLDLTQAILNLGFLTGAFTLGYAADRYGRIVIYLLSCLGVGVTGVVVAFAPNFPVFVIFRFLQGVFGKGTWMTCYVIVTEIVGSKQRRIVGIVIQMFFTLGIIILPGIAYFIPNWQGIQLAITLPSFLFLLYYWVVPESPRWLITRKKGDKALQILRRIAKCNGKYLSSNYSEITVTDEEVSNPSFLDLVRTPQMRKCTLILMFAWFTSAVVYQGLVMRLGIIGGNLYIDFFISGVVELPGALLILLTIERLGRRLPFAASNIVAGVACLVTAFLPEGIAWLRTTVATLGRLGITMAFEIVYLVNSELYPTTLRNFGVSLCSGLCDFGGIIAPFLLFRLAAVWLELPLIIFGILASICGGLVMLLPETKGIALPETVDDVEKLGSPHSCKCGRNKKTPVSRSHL

[5] = Published clinical pharmacokinetic data; conditions: from published Cmax and protein binding
[6] = target: T1, OCT2; experiment: Inhibition of OCT2-mediated oxaliplatin uptake in transfected MDCK-II cells (protein-free HBSS); conditions: for inhibition at 30 min, 5 μM / inhibition at 30 min, 50 μM / potency estimated from few doses at 30 min: human
Description: Fully confluent MDCK cell monolayers were transfected with either cDNA plasmids encoding the human transporter to be tested or a GFP control. […] The cells were then washed with ice-cold PBS and lysed with 50:50 acetonitrile:H2O. Intracellular content of the substrate was quantified by LC/MS/MS or a MicroBeta radiometric plate reader.

[7] = target: T1, OCT2; experiment: Inhibition of OCT2-mediated oxaliplatin transport in 100% human serum or HBSS containing 4% BSA (IC50,app); conditions: for fold higher potency for OCT2 over OCT1, OCT3, MATE1 and MATE2K in transporting oxaliplatin: from IC50,app of Table 4
[8] = target: T1, OCT2; experiment: Inhibition of OCT2-mediated metformin uptake in transfected MDCK-II cells
[9] = target: T3, OCT1 (Homo sapiens, UniProt O15245); experiment: Inhibition of OCT1-mediated oxaliplatin transport in human serum or 4% BSA HBSS
T3 sequence (O15245 1-554): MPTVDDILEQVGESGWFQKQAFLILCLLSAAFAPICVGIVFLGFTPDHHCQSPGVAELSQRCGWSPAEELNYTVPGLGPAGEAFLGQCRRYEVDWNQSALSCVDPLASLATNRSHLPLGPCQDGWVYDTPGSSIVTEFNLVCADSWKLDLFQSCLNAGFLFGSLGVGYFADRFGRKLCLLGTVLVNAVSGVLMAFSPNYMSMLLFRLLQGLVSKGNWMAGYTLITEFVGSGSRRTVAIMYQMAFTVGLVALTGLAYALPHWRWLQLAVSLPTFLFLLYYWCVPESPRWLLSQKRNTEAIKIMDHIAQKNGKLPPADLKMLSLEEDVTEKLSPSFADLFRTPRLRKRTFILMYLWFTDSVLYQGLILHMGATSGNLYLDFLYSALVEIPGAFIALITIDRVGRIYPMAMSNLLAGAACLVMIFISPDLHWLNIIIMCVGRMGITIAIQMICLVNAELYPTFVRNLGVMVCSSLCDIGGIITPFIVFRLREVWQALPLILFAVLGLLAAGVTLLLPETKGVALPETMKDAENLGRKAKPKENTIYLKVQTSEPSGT

[10] = system: HT-29 cells; experiment: Anti-proliferation study (SRB assay) in HT-29 cells; conditions: for effect on anti-tumor potency of gemcitabine in HT-29: buflomedil 6 μM, FIG. 13; for effect on anti-tumor potency of 5-FU in HT-29: buflomedil 6 uM, dolutegravir 3, 6 and 9 μM, FIG. 12
Description: The potency was determined by the sulforhodamine B (SRB) assay in 96-well plates. […] Seeding density was 3000 cells/well for both cell lines.

[11] = read-out: Plasma peak total concentration Cmax, published clinical pharmacokinetic data
[12] = IC50,app (μM), apparent inhibition constant in 100% human serum or HBSS containing 4% BSA, OCT2-mediated oxaliplatin uptake
[13] = OCT2 IC50, app (μM), 100% human serum or HBSS containing 4% BSA, 20 μM or 100 μM oxaliplatin
[14] = MDCK-II cells transfected with human OCT2, probe oxaliplatin 10 μM
[15] = 600 mg dosed IV bolus (FIG. 1B)

Chain of MATE2K (Q86VL8 1-566 isoform Q86VL8-3): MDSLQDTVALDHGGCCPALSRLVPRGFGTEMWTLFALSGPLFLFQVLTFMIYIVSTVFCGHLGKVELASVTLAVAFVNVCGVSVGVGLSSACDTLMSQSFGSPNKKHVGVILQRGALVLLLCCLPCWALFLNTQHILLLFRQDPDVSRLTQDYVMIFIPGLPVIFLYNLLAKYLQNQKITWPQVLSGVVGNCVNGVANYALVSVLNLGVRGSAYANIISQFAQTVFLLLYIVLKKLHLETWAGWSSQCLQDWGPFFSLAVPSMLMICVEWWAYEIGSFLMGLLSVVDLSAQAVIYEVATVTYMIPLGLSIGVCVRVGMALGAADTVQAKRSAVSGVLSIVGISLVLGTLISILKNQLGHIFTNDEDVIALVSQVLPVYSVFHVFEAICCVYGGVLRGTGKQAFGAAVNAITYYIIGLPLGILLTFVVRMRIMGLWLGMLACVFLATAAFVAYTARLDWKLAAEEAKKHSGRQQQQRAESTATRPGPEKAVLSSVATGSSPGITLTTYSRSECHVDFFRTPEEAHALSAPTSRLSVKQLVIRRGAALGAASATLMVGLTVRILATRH

Row | SMILES | Plasma protein binding (%) [1] [%] | Cmax [1, 11] [µM] | IC50 [3] [µM] | IC50 [4] [µM] | Plasma peak unbound concentration Cmax,u [5] [µM] | IC50 [6] [µM] | inhibition at 30 min, 5 μM [6] [%] | inhibition at 30 min, 50 μM [6] [%] | IC50 [7, 12] [µM] | IC50 [7, 13] [µM] | fold higher potency for OCT2 over OCT1, OCT3, MATE1 and MATE2K in transporting oxaliplatin [7] | IC50 [8] [µM] | IC50 [9] [µM] | effect on anti-tumor potency of gemcitabine in HT-29 [10] | effect on anti-tumor potency of 5-FU in HT-29 [10] | also measured
1 | COc1cc(OC)c(C(=O)CCCN2CCCC2)c(OC)c1 [Buflomedil, 4-pyrrolidin-1-yl-1-(2,4,6-trimethoxyphenyl)butan-1-one] | 70 | 6.8 | 84 ± 23.1 | 28 ± 11.4 | 2.04 | 0.78 | 87 | 105 | 1.45 | 1.4 ± 0.2 | at least 20 fold | 5.7 ± 0.8 | 34.6 ± 7.6 | did not impact the anti-tumor effect of 5-FU and gemcitabine; also recorded: did not affect anti-tumor potency of gemcitabine | did not impact the anti-tumor effect of 5-FU and gemcitabine; also recorded: did not affect anti-tumor potency of 5-FU | Mean Cmax ([1]; 300 mg po, bid): 2100 ng/mL; Mean T1/2 ([1]; 300 mg po, bid): 3.4 h; Mean Cmax ([1]; 600 mg slow-release, po, qd): 2200 ng/mL; Mean T1/2 ([1]; 600 mg slow-release, po, qd): >10 h; average clearance ([1]; Group A patients): 292 mL/min; average clearance ([1]; Group B patients, seniors (average age 82 yrs) with impaired renal clearance): 99.5 mL/min; Cmax ([1]; read-out: Mean Cmax, 300 mg po, bid): 6.8 µM; Cmax ([1]; read-out: Mean Cmax, 600 mg slow-release, po, qd): 7.2 µM; Cmax/IC50, app ratio ([2]; 300 mg po, bid): 4.69; Cmax/IC50, app ratio ([2]; 600 mg slow-release, po, qd): 4.97
2 | C[C@@H]1CCO[C@H]2Cn3cc(C(=O)NCc4ccc(F)cc4F)c(=O)c(O)c3C(=O)N12 [Dolutegravir] | 99.5 | 10.9 | – | > 100 | 0.05 | 0.2 | – | – | 3.37 | 3.4 ± 1 | – | 0.54 ± 0.09 | > 100 | did not impact the anti-tumor effect of 5-FU and gemcitabine | did not impact the anti-tumor effect of 5-FU and gemcitabine; also recorded: did not affect anti-tumor potency of 5-FU | Mean Cmax ([1]; 50 mg po qd, day 10): 6160 ng/mL; Mean T1/2 ([1]; 50 mg po qd, day 10): ~15 h; Mean Cmax ([1]; 50 mg po qd, single dose): 4560 ng/mL; Mean T1/2 ([1]; 50 mg po qd, single dose): 14.2 h; Cmax ([1]; read-out: Mean Cmax, 50 mg po qd, day 10): 14.7 µM; Cmax ([1]; read-out: Mean Cmax, 50 mg po qd, single dose): 10.9 µM; Cmax/IC50, app ratio ([2]; 50 mg po qd, day 10): 4.36; Cmax/IC50, app ratio ([2]; 50 mg po qd, single dose): 3.23; inhibition at 30 min, 5 μM [6, 14]: 83%; inhibition at 30 min, 50 μM [6, 14]: 97%; potency estimated from few doses at 30 min [6, 14]: 0.2 µM
3 | Clc1ccc(COC(Cn2ccnc2)c2ccc(Cl)cc2Cl)c(Cl)c1 (centres unmarked) [Miconazole] | 92 | 14.9 | > 100 | 49.2 ± 22.6 | – | 1.55 | 39 | 97 | 3.3 | 3.3 ± 0.6 | at least 2 fold | 142 | 8.4 ± 1.5 | – | – | decrease of plasma concentration at 3 hour [1, 15]: nearly five-fold decrease at 3 hour; plasma half-time (initial phase) [1, 15]: 0.4 h; Mean Cmax ([1]; 800 mg IV): 5000 ng/mL; Mean T1/2 (hour), distribution phase ([1]; 800 mg IV): 0.4 (dis- hour; Mean T1/2 (hour), terminal phase ([1]; 800 mg IV): phase), 8.9 hour; Cmax ([1]; read-out: Mean Cmax, 800 mg IV): 12 µM; Cmax/IC50, app ratio ([2]; 800 mg IV): 3.64; potency estimated from few doses at 30 min ([6]; IC50 (μM) (substrate Oxaliplatin)): 1.55 µM; fold less potent in inhibiting OCT2-mediated metformin transport than ASP+ and oxaliplatin transport ([8]; comparison of Table 1 potencies): approximately 70 fold

From patent US11197862B2, “Methods of preventing toxicity of platinum drugs” (XOMICS BIOPHARMA, INC., priority 2015, dated 2021)
